ChEMBL document CHEMBL1201862, “PubChem BioAssay data set” (2004)
The source made the active and inactive calls. Cut-off read from the data, not from the text of the source, for most assays here: actives have a measured EC50 and inactives only a lower limit.

Columns and labels:
[1] = molecular target: Luciferin 4-monooxygenase (Photinus pyralis, UniProt P08659); assay: firefly luciferase enzyme inhibitors, dose response, biochemical, luminescence (AID 1891)
[2] = Luminescence Cell-Based Dose Confirmation HTS to Identify Inhibitors of Platelet Dense Granule Release. [Related pubchem assays: 1663 (Primary HTS), 1678 (Summary of Project)]; format: functional
[3] = molecular target: T1, Calpain-2 catalytic subunit (Sus scrofa, UniProt P43367); assay: pig calpain II inhibitor potency, dose response, biochemical, fluorogenic peptide substrate (AID 1420); format: functional
T1 sequence (P43367 whole entry): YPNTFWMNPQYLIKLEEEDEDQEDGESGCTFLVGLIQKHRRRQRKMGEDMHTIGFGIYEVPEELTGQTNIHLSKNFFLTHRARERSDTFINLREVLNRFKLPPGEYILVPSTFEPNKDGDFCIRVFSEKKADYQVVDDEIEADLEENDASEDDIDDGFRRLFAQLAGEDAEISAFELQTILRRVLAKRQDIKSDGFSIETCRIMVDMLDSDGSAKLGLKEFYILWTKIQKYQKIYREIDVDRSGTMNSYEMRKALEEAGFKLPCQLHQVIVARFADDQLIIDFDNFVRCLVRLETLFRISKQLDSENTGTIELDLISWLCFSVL

[4] = inhibitors of firefly luciferase expression or activity, dose response, H4 neuroglioma cells, luminescence (AID 1990); format: functional, cell-based
[5] = Luminescence Cell-Based Dose Response HTS to Identify Inhibitors of 5'UTR Stem-Loop Driven Prion Protein mRNA Translation in H4 Neuroglioblastoma Cells. [Related pubchem assays: 1827 (Project Summary), 1813 (Primary HTS)]; format: functional
[6] = inhibitors of SNCA 5'UTR-driven reporter translation, confirmation, H4 neuroglioma cells, luminescence (AID 1988); format: functional, cell-based
[7] = NIH-3T3 fibroblast cytotoxicity, dose response, cytotoxicity control, cell-based, fluorescence, Alamar Blue, secondary assay (AID 2327); format: functional;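 note: NIH-3T3 mouse fibroblasts cultured with fluconazole at 8 µg/mL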
[8] = C. albicans growth with fluconazole, confirmation, fluorescence, retest (AID 2467); format: functional, cell-based
H9c2 = assay: cells; format: functional, cell-based; settings: Rattus norvegicus, H9c2, Myocardium;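 note: confirmatory concentration-response retest of ultra-high-throughput screening hits for modulation of myocardial damage; cell death induced by hydrogen peroxide oxidative stress; compound pretreatment for 60 min then peroxide exposure for 2 h; potency is for protecting the cells against peroxide damage rather than for killing them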
[9] = test system: Streptococcus sp. 'group A'; assay: growth inhibition of control SK(-) GAS strain, dose response, counter-screen for streptokinase expression inhibitor project, luminescence, kanamycin, BacTiterGlo, confirmation (AID 1900); format: functional, organism-based
Streptokinase A = molecular target: T2, Streptokinase A (Streptococcus pyogenes serotype M1, UniProt P10520); assay: S. pyogenes streptokinase expression inhibitors, potency, dose response, plasminogen activation absorbance, OD405 (AID 1914); format: functional, Streptococcus pyogenes M1 GAS;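 note: secreted streptokinase activity via plasminogen activation per viability signal from cell pellet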
T2 sequence (P10520 whole entry): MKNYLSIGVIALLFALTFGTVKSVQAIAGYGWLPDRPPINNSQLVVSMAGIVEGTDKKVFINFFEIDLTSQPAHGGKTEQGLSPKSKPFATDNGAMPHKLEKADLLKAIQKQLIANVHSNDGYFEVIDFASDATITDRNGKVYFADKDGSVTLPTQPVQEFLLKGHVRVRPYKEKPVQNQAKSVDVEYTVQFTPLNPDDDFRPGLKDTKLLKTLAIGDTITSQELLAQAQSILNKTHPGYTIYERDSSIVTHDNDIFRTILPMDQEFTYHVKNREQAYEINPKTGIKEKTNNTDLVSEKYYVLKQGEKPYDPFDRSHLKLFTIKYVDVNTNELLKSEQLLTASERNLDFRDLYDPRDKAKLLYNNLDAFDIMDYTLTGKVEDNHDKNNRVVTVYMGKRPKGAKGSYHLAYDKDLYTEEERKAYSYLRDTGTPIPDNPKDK

Streptococcus = assay: Group A Streptococcus viability loss, dose response, counter-screen for streptokinase expression inhibitor project, luminescence, BacTiterGlo (AID 1915); format: functional, organism-based;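 note: potency for reduction of bacterial viability or growth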
[10] = molecular target: T3, Corticotropin-releasing factor receptor 2/Corticotropin-releasing factor-binding protein (Homo sapiens, UniProt P24387+Q13324); assay: activators of CRF receptor 2 with binding protein – uHTS hits, confirmation (AID 602473); format: functional; settings: read-out: EC50_Mean
T3 sequence (Q13324 whole entry): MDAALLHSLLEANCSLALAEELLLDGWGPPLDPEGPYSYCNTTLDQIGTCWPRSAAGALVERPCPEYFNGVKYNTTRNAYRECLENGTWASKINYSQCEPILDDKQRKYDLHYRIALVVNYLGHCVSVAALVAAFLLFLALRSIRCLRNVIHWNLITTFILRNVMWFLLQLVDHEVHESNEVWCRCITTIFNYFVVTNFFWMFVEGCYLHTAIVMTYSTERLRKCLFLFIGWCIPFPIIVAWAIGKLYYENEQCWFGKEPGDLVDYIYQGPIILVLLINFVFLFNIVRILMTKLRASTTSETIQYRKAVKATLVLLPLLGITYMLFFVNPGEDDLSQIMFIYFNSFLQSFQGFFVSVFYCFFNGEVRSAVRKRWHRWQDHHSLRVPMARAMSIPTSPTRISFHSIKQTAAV
T3 sequence (P24387 whole entry): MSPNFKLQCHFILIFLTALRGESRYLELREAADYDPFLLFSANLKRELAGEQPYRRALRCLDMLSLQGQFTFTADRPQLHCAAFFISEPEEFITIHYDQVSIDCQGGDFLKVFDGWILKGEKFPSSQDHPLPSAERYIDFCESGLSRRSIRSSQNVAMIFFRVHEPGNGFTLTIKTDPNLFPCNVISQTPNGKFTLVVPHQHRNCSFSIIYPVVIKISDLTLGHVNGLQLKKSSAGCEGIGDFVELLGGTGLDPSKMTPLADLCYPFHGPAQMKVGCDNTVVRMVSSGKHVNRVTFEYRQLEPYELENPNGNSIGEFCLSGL

Paired box protein Pax-8 = Paired box protein Pax-8 (Homo sapiens, UniProt Q06710); assay: inhibitors of PAX8-driven TPO luciferase reporter, dose response, RMG-I cells, cherry-pick (AID 687027); format: functional, cell-based;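 note: luciferase reporter driven by Pax8 target thyroperoxidase promoter measured by SteadyGlo luminescence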
Chain of Paired box protein Pax-8 (Q06710 whole entry, the tested form may be a part): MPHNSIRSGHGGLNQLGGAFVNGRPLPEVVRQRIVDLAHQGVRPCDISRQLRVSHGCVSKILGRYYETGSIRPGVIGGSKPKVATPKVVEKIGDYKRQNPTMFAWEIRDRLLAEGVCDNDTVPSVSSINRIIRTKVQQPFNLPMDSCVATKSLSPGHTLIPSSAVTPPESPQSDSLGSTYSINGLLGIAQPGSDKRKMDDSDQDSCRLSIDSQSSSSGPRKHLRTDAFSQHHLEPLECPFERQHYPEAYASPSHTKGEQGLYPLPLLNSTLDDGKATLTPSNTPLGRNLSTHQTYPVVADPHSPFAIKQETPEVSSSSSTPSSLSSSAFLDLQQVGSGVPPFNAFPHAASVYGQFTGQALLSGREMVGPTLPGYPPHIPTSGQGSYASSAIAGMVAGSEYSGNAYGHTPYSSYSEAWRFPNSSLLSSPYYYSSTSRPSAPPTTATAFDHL

[11] = inhibitors of HIV Env-driven cell fusion, dose response, cherry-pick (AID 652057); format: functional, cell-based
[12] = ZM109 Env clade C HIV-1 fusion inhibitors, dose response, HeLa effector, CEM target cells, luciferase, cherry-pick (AID 652058); format: functional, cell-based
[13] = inhibitors of clade B AD8 Env fusion, dose response, cell-based, cherry-pick (AID 652062); format: functional;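 note: luciferase signal from cell-cell fusion driven by HIV-1 clade B AD8 Env; potency is for inhibitors of fusion seen as a drop in luminescence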

Chain of Luciferin 4-monooxygenase (P08659 whole entry): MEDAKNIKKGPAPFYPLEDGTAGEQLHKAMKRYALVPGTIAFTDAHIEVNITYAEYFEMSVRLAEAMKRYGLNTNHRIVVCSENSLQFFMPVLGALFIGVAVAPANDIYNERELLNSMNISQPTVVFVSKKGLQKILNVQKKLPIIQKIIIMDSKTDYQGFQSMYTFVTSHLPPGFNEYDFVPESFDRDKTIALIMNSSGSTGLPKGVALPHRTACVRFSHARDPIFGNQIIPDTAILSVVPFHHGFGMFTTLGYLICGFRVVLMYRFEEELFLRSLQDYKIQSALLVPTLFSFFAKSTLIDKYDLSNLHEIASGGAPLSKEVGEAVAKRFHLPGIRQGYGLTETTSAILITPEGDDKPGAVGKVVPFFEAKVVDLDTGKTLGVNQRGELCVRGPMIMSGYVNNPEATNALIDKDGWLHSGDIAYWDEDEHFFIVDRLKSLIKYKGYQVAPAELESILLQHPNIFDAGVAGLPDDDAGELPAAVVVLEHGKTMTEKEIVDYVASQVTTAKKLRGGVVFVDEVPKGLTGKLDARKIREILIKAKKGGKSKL

For `COc1ccc(NC(=O)CSc2ccccn2)c([N+](=O)[O-])c1`, the EC50 [1] was > 112 µM (not active) and the EC50 [2] was > 112 µM (not active).

With `O=C(NCCc1csc(-c2cccnc2)n1)c1ccc(Br)o1` the IC50 [3] was < 0.4 µM (not active).

In the case of `CC(C)OC(=O)c1cc2c(ccn2C)n1CC(=O)N(Cc1ccccc1)c1ccccc1`, the EC50 [4] is reported as > 120 µM (not active), the EC50 [5] is reported as > 120 µM (not active) and the EC50 [6] is reported as 13.7 µM (active).

For `Cc1ccc(CNC(=O)CN=C(S)N(Cc2ccccc2)Cc2ccccc2F)cc1`, the IC50 [3] was 5.45 µM (not active).

In the case of `CCOC(=O)c1c(NC(=O)CSc2nnnn2C)sc(C)c1-c1ccc(C)cc1`, the IC50 [3] is reported as 5.1 µM (not active).

For `CCOC(=O)c1c(C)[nH]c(C)c1S(=O)(=O)NCC(=O)Nc1ccccn1`, the EC50 [1] was > 112 µM (not active) and the EC50 [2] was > 112 µM (not active).

In the case of `CCCCNCCOCCOc1ccc(F)cc1`, the EC50 [1] is reported as > 112 µM (not active) and the EC50 [2] is reported as > 112 µM (not active).

In the case of `COc1ccc(-n2c(C)c(C(C)=O)c(C(C)=O)c2C)cc1OC`, the EC50 [1] is reported as > 112 µM (not active) and the EC50 [2] is reported as > 112 µM (not active).

With `O=C(NCC(=O)N(CC1CCCO1)C(C(=O)NC1CCCCC1)c1ccccc1)c1ccco1` (stereo unspecified) the EC50 [7] was > 150 µM (inactive) and the EC50 [8] was 6.52 µM (active).

In the case of `CCCC(=O)C1=C(N2CCCC2)CC(C)(C)C(C(=O)OC)C1=O` (stereo unspecified), the EC50 [1] is reported as > 112 µM (not active) and the EC50 [2] is reported as > 112 µM (not active).

In the case of `COc1ccc(CSc2ncnc3sccc23)cc1F`, the EC50 [1] is reported as > 112 µM (not active) and the EC50 [2] is reported as > 112 µM (not active).

In the case of `CCOc1ccccc1C(=O)N1c2ccccc2Sc2ccccc21`, the IC50 [3] is reported as 4.06 µM (not active).

In the case of `Cc1cc(OCC(=O)NNC(=S)NC(=O)c2cccs2)ccc1Cl`, the EC50 [7] is reported as 74.8 µM (active) and the EC50 [8] is reported as 2.09 µM (active).

For `O=C(COS(=O)c1ccccc1)Nc1cc(Cl)ccc1N1CCOCC1` (stereo unspecified), the EC50 [7] was > 160 µM (inconclusive) and the EC50 [8] was 2.82 µM (active).

For `Cn1c(NCc2ccco2)nc2c1c(=O)n(Cc1ccc(Cl)cc1)c(=O)n2C`, the EC50 [4] was 16.9 µM (active), the EC50 [6] was > 120 µM (not active) and the IC50 [3] was 1.88 µM (not active). The IC50 (H9c2) was > 79 µM (inactive).

In the case of `COc1ccc(NC(=O)c2noc(C(C)C)c2[N+](=O)[O-])cc1`, the IC50 [3] is reported as 9.64 µM (not active).

In the case of `COc1ccccc1NC(=O)CSc1nc(O)c2c(C)cc(C)nc2n1`, the EC50 [1] is reported as > 112 µM (not active) and the EC50 [2] is reported as > 112 µM (not active).

For `CNC(=O)COC(=O)c1c2c(nc3ccccc13)CCC2`, the EC50 [7] was > 160 µM (inactive) and the EC50 [8] was > 38 µM (not active).

In the case of `c1ccc(-c2cn(-c3ccccc3)c3ncnc(N4CCCCC4)c23)cc1`, the IC50 [3] is reported as 5.36 µM (not active).

In the case of `COc1ccc(NC(=S)N(CCCN2CCOCC2)Cc2cn(C)c3ccccc23)cc1`, the IC50 [3] is reported as 0.737 µM (not active).

With `CCCC1=NN2C(=N)/C(=C\c3cc(C)n(-c4cc(C)cc(C)c4)c3C)C(=O)N=C2S1` the EC50 [9] was 1.63 µM (active), the EC50 (Streptokinase A) was 5.85 µM (active) and the EC50 (Streptococcus) was 18.7 µM (active). The EC50 [10] was 9.04 µM (active).

For `O=C(O)C1C2C=CC(O2)C1C(=O)NCCCn1ccnc1` (stereo unspecified), the EC50 [1] was > 112 µM (not active) and the EC50 [2] was > 112 µM (not active).

In the case of `CN(C)C(=O)C(=O)c1c(-c2ccccc2)cc2ccccn12`, the IC50 [3] is reported as > 50 µM (not active).

With `O=C(Nc1ccncc1)c1ccc(Br)cc1` the EC50 [7] was > 150 µM (inactive) and the EC50 [8] was > 38 µM (not active).

For `Cc1nc2ncnn2c(Nc2ccc3c(c2)OCO3)c1Cc1ccccc1`, the EC50 [4] was 43.7 µM (active), the EC50 [5] was > 120 µM (not active) and the EC50 [6] was > 120 µM (not active).

With `COc1ccc(C(=O)NNC(=S)NC(=O)c2ccc(OC)cc2)cc1` the EC50 [10] was 5.09 µM (active).

In the case of `Cc1ccc(C)c(N(C(=O)Cc2cccs2)C(C(=O)NC2CCCC2)c2ccc(C)o2)c1` (stereo unspecified), the IC50 [3] is reported as 7.05 µM (not active).

In the case of `O=C(c1ccco1)N1CCCN(Cc2nc(-c3cccs3)no2)CC1`, the EC50 [1] is reported as > 112 µM (not active) and the EC50 [2] is reported as 25 µM (active).

With `CSc1ccc(/C=C(/NC(=O)c2ccco2)C(=O)N2CCCCC2)cc1` the EC50 [1] was > 112 µM (not active) and the EC50 [2] was 17.5 µM (active).

For `N=C(NOC(=O)c1ccc2ccccc2c1)c1ccccn1`, the EC50 [1] was 0.596 µM (active) and the EC50 [2] was 1.53 µM (active).

In the case of `Cc1onc(-c2ccccc2)c1C(=O)NC(=S)NNC(=O)c1cccnc1`, the EC50 [7] is reported as > 160 µM (inactive) and the EC50 [8] is reported as > 38 µM (not active).

In the case of `CC/C(=N\CCc1c(C)[nH]c2ccc(OC(F)(F)F)cc12)C1=C(O)CC(c2ccccc2)CC1=O` (stereo unspecified), the EC50 [4] is reported as 10.7 µM (active), the EC50 [5] is reported as 16.8 µM (active) and the EC50 [6] is reported as 8.9 µM (active).

With `Cc1ccc(S(=O)(=O)Nc2ccc3c(c2)C(=O)N([C@@H](C)CO)C[C@@H](C)[C@@H](CN(C)Cc2ccc(C(F)(F)F)cc2)OCCCC[C@H](C)O3)cc1` the AC50 (Paired box protein Pax-8) was 9.16 µM (active).

In the case of `C[C@H](CO)N1C[C@H](C)[C@H](CN(C)S(=O)(=O)c2ccc(F)cc2)Oc2ccc(NC(=O)Nc3cccc4ccccc34)cc2CC1=O`, the AC50 [11] is reported as < 0.26 µM (active), the AC50 [12] is reported as 0.483 µM (active) and the AC50 [13] is reported as 1.27 µM (active).

In the case of `CC(C)CC#Cc1ccc2c(c1)O[C@@H](CN(C)Cc1ccccn1)[C@H](C)CN([C@H](C)CO)S2(=O)=O`, the AC50 [11] is reported as 26.1 µM (active), the AC50 [12] is reported as 31.9 µM (active) and the AC50 [13] is reported as 26 µM (active).

With `C[C@@H]1CN([C@@H](C)CO)C(=O)Cc2cc(NC(=O)Nc3ccc(F)cc3)ccc2O[C@H]1CN(C)Cc1ccc(Cl)c(Cl)c1` the AC50 (Paired box protein Pax-8) was 5.72 µM (active).

For `O=C(N/N=C/c1sc(N2CCCCC2)nc1-c1cccs1)c1cccnc1`, the EC50 [7] was > 160 µM (inconclusive) and the EC50 [8] was > 38 µM (not active).
